The values that follow come from patent US20030175350A1, “Enteric preparations containing physiologically active peptides” (priority 2000, published 2003).

Data set [1] is described as follows: Absorbability of compound (1) in cynomolgus monkey by oral administration of tablets. The format is in vivo. The text has this:
Blood was periodically collected, plasma was isolated, and then plasma concentration of unchanged was quantified with HPLC.

The conditions of data set [2]: rat, in vivo, po; cited from earlier work.

Turning to `C[C@@H]1OC(=O)NC1C(=O)N[C@@H](Cc1cscn1)C(=O)N1CCC[C@H]1C` (stereo partly drawn) [compound (1)], in data set [1], the “Oral absorbability compared to rat and mouse” value is “decreased absorbability”; the “Tmax compared to rat and mouse” value is “markedly delayed Tmax”. What is called bioavailability is dose-corrected exposure relative to a reference, in per cent. With `CN1C(=O)C[C@@H](C(=O)N[C@@H](Cc2c[nH]cn2)C(=O)N2CCC[C@H]2C(N)=O)NC1=O` [taltirelin], in data set [2], the bioavailability is 3.9%.
